Consider eight molecules from patent US11542274B1, “Therapeutic compounds and methods of use thereof” (AGENCY FOR SCIENCE, TECHNOLOGY AND RESEARCH (A*STAR), priority 2019, dated 2023).

Entries after “also recorded” stand apart in the source; their conditions may differ.

One test deals with truncated CRBN (319-427) (Homo sapiens (Human), UniProt Q96SW2). The experiment in a line: Fluorescence binding assay (fluorescence quenching), affinity to E3-CEREBLON (CRBN)-ubiquitin ligase. To be noted: ubiquitination moiety, pH 6.5.
Test [1] deals with CRBN (truncated, residues 319-427) (Homo sapiens (Human), UniProt Q96SW2). Nature of the test: NMR binding experiments (1H-15N HSQC titration). To be noted: 15N-labeled CRBN, ligand to CRBN ratios 0, 0.5, 1.0 and 1.5, 25° C. How it is done:
All the NMR experiments were carried out on a Bruker magnet with proton frequency of 600 MHz or 700 MHz equipped with a cryo-probe. The experiments were performed at 25° C. The ^1H-^15N HSQC spectrum was collected using a standard pulse from the pulse library (Topspin version 2.1). To test whether a developed CRBN binder interacts with CRBN, titration of the compound to ^15N-labeled CRBN was carried out. The ^1H-^15N HSQC spectra of mixtures in which ligand to CRBN ratios are 0, 0.5, 1.0 and 1.5 were collected and compared. The data were collected using Topspin (ver 2.1) provided with equipment. The data were processed with topspin (ver 2.1), NMRPipe (Delaglio et al. 1995) and visualized using NMRView (Johnson 2004). The truncated CRBN: residues 319-427 was used in the NMR experiments.

The target in another test is BRD4 (Homo sapiens (Human), UniProt O60885). Nature of the test: Western blot analysis of BRD4 degradation in RAMOS cells. Format: cell-based. As for the experimental part:
Ramos (ATCC, CRL-1596) cells cultured in Roswell Park Memorial Institute (RPMI) 1640 Medium supplemented with 10% Fetal bovine serum and 1% Penicillin-streptomycin at 37° C. in humidified atmosphere with 5% CO2. In 6-well plate, 1.2 million cells were treated with indicated PROTAC compounds at 0.1% final concentration (v/v) of DMSO for desired duration of time. Pelleted cells were lysed in RIPA buffer (1% Nonidet P-40, 0.5% sodium deoxycholate, 0.1% SDS in 1× Tris-buffered saline) supplemented with protease inhibitor cocktail, 0.5 U/μL Benzonase (Novagen) and 1 mM MgCl2. Lysates were incubated on ice for 10 minutes followed by 15 minutes' centrifugation at 15000×g at 4° C. Supernatant was collected and subjected to Bradford protein quantification assay. Heat-denatured lysates (50 μg total protein) were loaded on NuPAGE 3-8% Tris-Acetate SDS protein gels. Proteins were transferred to PVDF membrane using iBlot 2 Dry Blotting Device (Thermo Fisher Scientific) at 20V for 13 minutes. Membranes were processed using iBind Flex Western Device (Thermo Fisher Scientific) by following the manufacturer's guideline. Membranes were probed with anti-BRD4 (Cell Signaling, Cat. #13440S), anti-c-Myc (Cell Signaling, Cat. #5605S), anti-β-actin (Proteintech, Cat. #66009-1-lg) antibodies, and developed with anti-Rabbit IgG, HRP-linked F(ab′)2 fragment (from donkey) (GE Life Sciences, Cat. #NA-9340) or anti-mouse IgG, AP-linked Antibody (Cell Signaling Technologies, Cat. #7056S) secondary antibodies. Membranes were incubated with Amersham ECL Select Western Blotting Detection Reagent (GE life sciences, Cat. #RPN2235) and Immun-Star™ AP Chemiluminescence Kits (Biorad, Cat. #1705018), visualized under FluorChem system (Protein Simple).
The protocol was run at 4 different inhibitor concentrations: 5 μM, 1 μM, 0.3 μM, 0.1 μM, using neat DMSO as the negative control. The % BRD4 degradation in western blot analysis is graded as follows: • K: Protein degradation >70% • L: 40%≤protein degradation<70% • M: protein degradation<40%

The subject of test [2] is RAMOS cells (Burkitt's lymphoma cell line). Nature of the test: Anti-proliferation assay (CellTiter-Glo). Format: cell-based. To be noted: 3 days. In a few lines: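 RAMOS cells (3000/well) exposed to compound for 3 days at 37 °C, 5% CO2. Viability read by CellTiter-Glo luminescence; GI50, concentration giving 50% of maximal proliferation inhibition, from nonlinear regression.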

Chain of CRBN (truncated, residues 319-427) (Q96SW2 319-427): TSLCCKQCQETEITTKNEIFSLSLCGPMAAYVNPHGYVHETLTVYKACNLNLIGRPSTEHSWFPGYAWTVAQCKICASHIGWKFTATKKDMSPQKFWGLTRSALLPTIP
Chain of truncated CRBN (319-427) (Q96SW2 319-427): as above

Molecule `Nc1cc(-c2ccc3c(c2)NC(=O)C3)ccn1` [Compound 011, 6-(2-aminopyridin-4-yl)indolin-2-one] yielded an IC50 on truncated CRBN (319-427) of 100 to 300 µM. Moreover, the “binding to CRBN in HSQC titration experiments” value (“binding to CRBN” below) in test [1] was “bind to protein CRBN; also recorded: clear binding”.

As for `Nc1cnccc1-c1ccc2c(c1)NC(=O)C2` [Compound 012, 6-(3-aminopyridin-4-yl)indolin-2-one], the IC50 on truncated CRBN (319-427) is > 300 µM. In test [1], the “binding to CRBN” value is given as “bind to protein CRBN; also recorded: clear binding”.

As for `Nc1ccc(-c2ccc3c(c2)NC(=O)C3)cn1` [Compound 013, 6-(6-aminopyridin-3-yl)indolin-2-one], the IC50 on truncated CRBN (319-427) is > 300 µM. Also, the “binding to CRBN” value in test [1] is recorded as “bind to protein CRBN; also recorded: clear binding”.

On truncated CRBN (319-427), `Nc1cc(-c2ccc3c(c2)CC(=O)N3)ccn1` [Compound 040, 5-(2-aminopyridin-4-yl)indolin-2-one] had an IC50 of 100 to 300 µM. Moreover, in test [1], the “binding to CRBN” value is recorded as “bind to protein CRBN; also recorded: clear binding”.

At truncated CRBN (319-427), `Nc1ncccc1-c1ccc2c(c1)CC(=O)N2` [Compound 045, 5-(2-aminopyridin-3-yl)indolin-2-one] gave an IC50 of 100 to 300 µM. In addition, the “binding to CRBN” value in test [1] was “bind to protein CRBN; also recorded: clear binding”.

Regarding `Cc1cc(NCCOCCOCCOCCOc2ccc(NC(=O)C[C@@H]3N=C(c4ccc(Cl)cc4)c4c(sc(C)c4C)-n4c(C)nnc43)cc2)ncc1-c1ccc2c(c1)CC(=O)N2` [Compound 148, (S)-2-(4-(4-chlorophenyl)-2,3,9-trimethyl-6H-thieno[3,2-f][1,2,4]triazolo[4,3-a][1,4]diazepin-6-yl)-N-(4-(2-(2-(2-(2-((4-methyl-5-(2-oxoindolin-5-yl)pyridin-2-yl)amino)ethoxy)ethoxy)ethoxy)ethoxy)phenyl)acetamide], the “% BRD4 degradation” value is “M (protein degradation<40%)” at BRD4 (0.1 μM), “L (40%≤protein degradation<70%)” on BRD4 (0.3 μM), “L (40%≤protein degradation<70%)” on BRD4 (1 μM) and “K (Protein degradation >70%)” at BRD4 (5 μM).

Take `Cc1cc(NCCOCCOCCOCCOc2ccc(NC(=O)C[C@@H]3N=C(c4ccc(Cl)cc4)c4c(sc(C)c4C)-n4c(C)nnc43)cc2)ncc1-c1cnc2c(c1)CC(=O)N2` [Compound 156, (S)-2-(4-(4-chlorophenyl)-2,3,9-trimethyl-6H-thieno[3,2-f][1,2,4]triazolo[4,3-a][1,4]diazepin-6-yl)-N-(4-(2-(2-(2-(2-((4-methyl-5-(2-oxo-2,3-dihydro-1H-pyrrolo[2,3-b]pyridin-5-yl)pyridin-2-yl)amino)ethoxy)ethoxy)ethoxy)ethoxy)phenyl)acetamide]: the “% BRD4 degradation” value on BRD4 (0.1 μM) is reported as “M (protein degradation<40%)”; at BRD4 (0.3 μM) it was “M (protein degradation<40%)”; at BRD4 (1 μM), “L (40%≤protein degradation<70%)”; at BRD4 (5 μM), “K (Protein degradation >70%)”.

The molecule “(S)-2-(4-(4-chlorophenyl)-2,3,9-trimethyl-6H-thieno[3,2-f][1,2,4]triazolo[4,3-a][1,4]diazepin-6-yl)-N-(2-oxo-2-(4-(5-(2-oxoindolin-5-yl)pyridin-2-yl)piperazin-1-yl)ethyl)acetamide [Compound 122]” gave a GI50 in test [2] of 0.001 to 0.1 µM.
